“Also recorded” adds a separate entry of the source.
Legend:
CRL 1790 cells = test: Calcein uptake by confocal microscopy; assay type: cell-based, human
Description: (§1) Calcein uptake into HT 29, CRL 1790 cells: Uptake of calcein-loaded nanoparticles into mammalian cells. Calcein by itself is impermeable through membrane, and may be taken up at a low level by endocytosis. Ethanol-bleached cherry was homogenized in water, also containing 1 mg/g fresh weight equivalent of calcein, and the supernatant dialyzed against water. Calcein complexed to nanofilaments is retained within the dialysis bag, and used for uptake measurements by confocal microscopy.
(§2) Studies were also performed to investigate use of nanofibres as delivery vehicles for a cargo of interest, where the cargo was non-covalently complexed with the nanofibres. In this study, nanofibres were used for cellular delivery of calcein. […]
(§3) Uptake of complexed molecules by nanofibres: Nanofibres are extremely long (micrometers in length, ˜5 nm in diameter; see FIG. 37, for example), and their ability to cross the plasma membrane was investigated. […] HT-29 and CRL-1790 cells were incubated in the presence of calcein alone, and calcein-complexed nanofibres (of equal fluorescence intensity). Uptake of calcein and calcein complexed with nanofibres were monitored by confocal microscopy. […] Similar experiments were also conducted with nanoparticles, however, because of quenching of fluorescence by polyphenols, successful acquisition of images was not achieved.

HT 29 cells = test: Calcein uptake by confocal microscopy; assay type: cell-based, human
Description: as §1, §2, §3

[1] = DPPH radical scavenging capacity of food powder; assay type: biochemical; conditions: positive control at same concentrations as polyphenols
[2] = tested on: Normal Cell Line CRL 1790
Description: (§4) Cell culture: Three cell lines derived from colon, CRL 1790, a normal cell line, HT 29, a colorectal cancer cell line and CRL 2158 a multidrug resistant colorectal cancer cell line (ATCC) were used to evaluate the cytotoxicity of nanocomplexes. Cells were cultured in media specifically recommended for each cell line. For HT 29, the medium used was DMEM (Dulbecco's modified Eagle's medium, Sigma), for CRL 2158, the medium used was RPMI, and for CRL 1790, the medium used was EMEM (Eagle's minimum essential medium; Cedarlane Labs, Burlington, ON, Canada). All the media were supplemented with FBS, Penicillin/streptomycin, and L-glutamine. At confluency (˜80%), cells were washed with 1×PBS twice. Cells were incubated with trypsin-EDTA for 5 minutes and then diluted in respective media supplemented with 10% FBS before staining with trypan blue (50 ul of cells and 450 ul of trypan blue) and counting viable cells to evaluate cytotoxicity. The cytotoxicity was determined by trypan blue exclusion by living cells and blue staining of dead cells. The number of dead cells in a unit area was counted and expressed as a percentage of total cells in the area. […]

[3] = tested on: Colorectal MDR cell line CRL 2158
Description: as §4

O=C(O)CN(CC(=O)O)Cc1cc2c(cc1O)Oc1cc(O)c(CN(CC(=O)O)CC(=O)O)cc1C21OC(=O)c2ccccc21 [calcein]
uptake of calcein into cells (CRL 1790 cells): comparatively very low | uptake of calcein into cells (HT 29 cells): comparatively very low; also recorded: Far reduced uptake

Cc1c(C)c2c(c(C)c1O)CCC(C)(C(=O)O)O2 (centres unmarked) [Trolox]
TEAC value [1]: 1

CC(=O)O[C@H]1C(=O)[C@@]2(C)[C@H]([C@H](OC(=O)c3ccccc3)[C@]3(O)C[C@H](OC(=O)[C@H](O)[C@@H](NC(=O)c4ccccc4)c4ccccc4)C(C)=C1C3(C)C)[C@]1(OC(C)=O)CO[C@@H]1C[C@@H]2O [Paclitaxel, paclitaxel]
cytotoxicity (in words) [2]: low level of cytotoxicity | cytotoxicity (in words) [3]: low level of cytotoxicity

Source: US12409148B2, “Plant tissue-derived nanoparticles and food powders” (PSIGRYPH INC., priority 2018, dated 2025)
